From PubChem BioAssay AID256 (DTP/NCI, 2004) come the findings set out here.

“And” between values parts separate entries of the source, which are not always exact repeats. Identical values can stand only once. Inconclusive results and toxic doses are left out. Residues, ends and D or L forms follow the SMILES beside them.

In this assay the test system is CD2F1 mice, L1210 leukemia ip, survival T/C. Kind of assay: NCI In Vivo Anticancer Drug Screen. Data for tumor model L1210 Leukemia (intraperitoneal) in CD2F1 (CDF1) mice. As to conditions: higher = longer survival. The essentials: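 Vehicle-treated tumor-bearing mice served as controls (C) for compound-treated mice (T). Reported figure is T divided by C.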
Where [1] appears, read: endpoint: mean survival time, dose: 50.0 mg/kg/injection, schedule: Q01DX009 (ip), vehicle: saline with Tween-80.
Where [2] appears, read: endpoint: mean survival time, dose: 100.0 mg/kg/injection, schedule: Q01DX009 (ip), vehicle: saline with Tween-80.
Where [3] appears, read: endpoint: mean survival time, dose: 100.0 mg/kg/injection, schedule: Q04DX003 (ip), vehicle: saline with Tween-80.
Where [4] appears, read: endpoint: mean survival time, dose: 200.0 mg/kg/injection, schedule: Q04DX003 (ip), vehicle: saline with Tween-80.
The mark [5] stands for this setting: endpoint: mean survival time, dose: 400.0 mg/kg/injection, schedule: Q04DX003 (ip), vehicle: saline with Tween-80.

For the compound `N#CC1(C#N)OC(C#N)(C#N)c2ccccc21`, the T/C runs as follows: (endpoint: mean survival time, dose: 6.25 mg/kg/injection, schedule: Q01DX001 (ip), vehicle: saline with Tween-80) 102 % of control; (endpoint: mean survival time, dose: 12.5 mg/kg/injection, schedule: Q01DX001 (ip), vehicle: saline with Tween-80) 98 % of control; (endpoint: mean survival time, dose: 25.0 mg/kg/injection, schedule: Q01DX001 (ip), vehicle: saline with Tween-80) 98 % of control.
Regarding `COC(=Nc1ccccc1)SSC(C)C`, the T/C runs as follows: (endpoint: mean survival time, dose: 6.25 mg/kg/injection, schedule: Q01DX009 (ip), vehicle: saline with Tween-80) 93 % of control and 101 % of control; (endpoint: mean survival time, dose: 12.5 mg/kg/injection, schedule: Q01DX009 (ip), vehicle: saline with Tween-80) 97 % of control and 108 % of control; (endpoint: mean survival time, dose: 25.0 mg/kg/injection, schedule: Q01DX009 (ip), vehicle: saline with Tween-80) 98 % of control and 104 % of control; under setting [1], 98 % of control and 108 % of control; under setting [2], 106 % of control; (endpoint: mean survival time, dose: 200.0 mg/kg/injection, schedule: Q01DX009 (ip), vehicle: saline with Tween-80) 108 % of control.
As to `CCN(CC)c1cccc(O)c1`, the T/C by setting is: under setting [1], 92 % of control; under setting [2], 98 % of control.
On to `CCCCCCCCCCCCCCOS(=O)(=O)O`, for which the T/C is, setting by setting: (endpoint: mean survival time, dose: 37.5 mg/kg/injection, schedule: Q01DX009 (ip), vehicle: saline) 93 % of control; (endpoint: mean survival time, dose: 75.0 mg/kg/injection, schedule: Q01DX009 (ip), vehicle: saline) 93 % of control.
`CC(C)(C)CC(C)(C)c1ccc(O)c(Cl)c1`: the T/C runs as follows: under setting [3], 96 % of control; under setting [4], 100 % of control; under setting [5], 106 % of control.
As for `CN(C)CC(O)c1ccc(O)c(O)c1` (stereo not given), the T/C is 115 % of control (endpoint: mean survival time, dose: 100.0 mg/kg/injection, schedule: Q04DX003 (ip), vehicle: saline); 115 % of control (endpoint: mean survival time, dose: 200.0 mg/kg/injection, schedule: Q04DX003 (ip), vehicle: saline); 103 % of control (endpoint: mean survival time, dose: 400.0 mg/kg/injection, schedule: Q04DX003 (ip), vehicle: saline).
For `CC(C)C(NC(=O)C(NC(=O)C(CCCN=C(N)N)NC(=O)C(N)CCCCN)C(C)C)C(N)=O` (stereo not given) (H-KRVV-NH2; configuration not given here), the T/C is, setting by setting: (endpoint: mean survival time, dose: 25.0 mg/kg/injection, schedule: Q01DX009 (ip), vehicle: water) 95 % of control; (endpoint: mean survival time, dose: 50.0 mg/kg/injection, schedule: Q01DX009 (ip), vehicle: water) 100 % of control; (endpoint: mean survival time, dose: 100.0 mg/kg/injection, schedule: Q01DX009 (ip), vehicle: water) 108 % of control; (endpoint: mean survival time, dose: 200.0 mg/kg/injection, schedule: Q01DX009 (ip), vehicle: water) 103 % of control.
For `C=CCS(=O)(=O)Cc1ccc([N+](=O)[O-])cc1`, the T/C reads like this: (endpoint: mean survival time, dose: 100.0 mg/kg/injection, schedule: Q04DX002 (ip), vehicle: Klucel (hydroxypropylcellulose) (HPC)) 105 % of control; (endpoint: mean survival time, dose: 200.0 mg/kg/injection, schedule: Q04DX002 (ip), vehicle: Klucel (hydroxypropylcellulose) (HPC)) 94 % of control; (endpoint: mean survival time, dose: 400.0 mg/kg/injection, schedule: Q04DX002 (ip), vehicle: Klucel (hydroxypropylcellulose) (HPC)) 105 % of control.
On to `CCCCOCC(C)O` (stereo not given), for which the T/C (endpoint: mean survival time, dose: 100.0 mg/kg/injection, schedule: Q01DX009 (ip), vehicle: saline) was 97 % of control; the T/C (endpoint: mean survival time, dose: 200.0 mg/kg/injection, schedule: Q01DX009 (ip), vehicle: saline) was 101 % of control; the T/C (endpoint: mean survival time, dose: 400.0 mg/kg/injection, schedule: Q01DX009 (ip), vehicle: saline) is 100 % of control.
`c1ccc2c(c1)nnn1c3ncccc3nc21`: the T/C was 98 % of control (endpoint: mean survival time, dose: 75.0 mg/kg/injection, schedule: Q01DX001 (ip), vehicle: saline); 92 % of control (endpoint: mean survival time, dose: 150.0 mg/kg/injection, schedule: Q01DX001 (ip), vehicle: saline); 93 % of control (endpoint: mean survival time, dose: 300.0 mg/kg/injection, schedule: Q01DX001 (ip), vehicle: saline).
For `CCCCCC(C)SC#N` (stereo not given), the T/C under setting [2] is 97 % of control.
As to `Nc1nc(N)c2nc(COc3ccc(C(=O)NC(CCC(=O)O)C(=O)O)cc3)cnc2n1` (stereo not given), the T/C by setting is: (endpoint: mean survival time, dose: 0.38 mg/kg/injection, schedule: Q01DX009 (ip), vehicle: saline with Tween-80) 110 % of control; (endpoint: mean survival time, dose: 0.75 mg/kg/injection, schedule: Q01DX009 (ip), vehicle: saline with Tween-80) 109 % of control; (endpoint: mean survival time, dose: 1.5 mg/kg/injection, schedule: Q01DX009 (ip), vehicle: sodium bicarbonate) 168 % of control; (endpoint: mean survival time, dose: 3.0 mg/kg/injection, schedule: Q01DX009 (ip), vehicle: saline with Tween-80) 95 % of control; (endpoint: mean survival time, dose: 3.0 mg/kg/injection, schedule: Q01DX009 (ip), vehicle: sodium bicarbonate) 179 % of control; (endpoint: mean survival time, dose: 6.0 mg/kg/injection, schedule: Q01DX009 (ip), vehicle: sodium bicarbonate) 157 % of control.
`Cc1ccc(S(=O)(=O)N(CCC(=O)O)c2ccccc2)cc1`: the T/C is 101 % of control under setting [3], 97 % of control under setting [4] and 98 % of control under setting [5].
For the compound `CC/C=C(\C)C=O`, the T/C is, setting by setting: (endpoint: mean survival time, dose: 100.0 mg/kg/injection, schedule: Q01DX001 (ip), vehicle: saline) 100 % of control; (endpoint: mean survival time, dose: 200.0 mg/kg/injection, schedule: Q01DX001 (ip), vehicle: saline) 97 % of control; (endpoint: mean survival time, dose: 400.0 mg/kg/injection, schedule: Q01DX001 (ip), vehicle: saline) 97 % of control.
On to `Cn1c(CC(O)(C(F)(F)F)C(F)(F)F)cc2ccccc21`, for which the T/C reads like this: (endpoint: mean survival time, dose: 100.0 mg/kg/injection, schedule: Q01DX001 (ip), vehicle: other) 106 % of control; (endpoint: mean survival time, dose: 200.0 mg/kg/injection, schedule: Q01DX001 (ip), vehicle: other) 92 % of control; (endpoint: mean survival time, dose: 400.0 mg/kg/injection, schedule: Q01DX001 (ip), vehicle: other) 95 % of control.
Take `CCSc1ncc(Br)c(Sc2nc(N)nc3nc[nH]c23)n1`: the T/C is, setting by setting: (endpoint: mean survival time, dose: 6.25 mg/kg/injection, schedule: Q01DX Z (ip), vehicle: carboxymethylcellulose (CMC)) 154 % of control; (endpoint: mean survival time, dose: 12.5 mg/kg/injection, schedule: Q01DX Z (ip), vehicle: carboxymethylcellulose (CMC)) 100 % of control; (endpoint: mean survival time, dose: 25.0 mg/kg/injection, schedule: Q01DX Z (ip), vehicle: carboxymethylcellulose (CMC)) 98 % of control; (endpoint: mean survival time, dose: 50.0 mg/kg/injection, schedule: Q01DX Z (ip), vehicle: carboxymethylcellulose (CMC)) 87 % of control.
`O=C(CCCC(Br)c1ccccc1)c1ccccc1` (stereo not given): the T/C was 90 % of control (endpoint: mean survival time, dose: 100.0 mg/kg/injection, schedule: Q01DX001 (ip), vehicle: saline with Tween-80) and 95 % of control (endpoint: mean survival time, dose: 400.0 mg/kg/injection, schedule: Q01DX001 (ip), vehicle: saline with Tween-80).
Take `CCOc1ccc(N2C(=O)CC(Sc3ccccc3N)C2=O)cc1` (stereo not given): the T/C is, setting by setting: (endpoint: mean survival time, dose: 100.0 mg/kg/injection, schedule: Q01DX009 (ip), vehicle: acetone) 93 % of control; (endpoint: mean survival time, dose: 200.0 mg/kg/injection, schedule: Q01DX009 (ip), vehicle: acetone) 104 % of control; (endpoint: mean survival time, dose: 400.0 mg/kg/injection, schedule: Q01DX009 (ip), vehicle: acetone) 112 % of control.
As for `CC(C)(C)[Si](OP(=O)(O[Si](c1ccccc1)(c1ccccc1)C(C)(C)C)N(CCCl)CCCl)(c1ccccc1)c1ccccc1`, the T/C by setting is: (endpoint: mean survival time, dose: 15.63 mg/kg/injection, schedule: Q01DX001 (ip), vehicle: distilled water + Tween-80) 101 % of control; (endpoint: mean survival time, dose: 31.25 mg/kg/injection, schedule: Q01DX001 (ip), vehicle: distilled water + Tween-80) 95 % of control; (endpoint: mean survival time, dose: 62.5 mg/kg/injection, schedule: Q01DX001 (ip), vehicle: distilled water + Tween-80) 101 % of control; (endpoint: mean survival time, dose: 125.0 mg/kg/injection, schedule: Q01DX001 (ip), vehicle: distilled water + Tween-80) 98 % of control; (endpoint: mean survival time, dose: 250.0 mg/kg/injection, schedule: Q01DX001 (ip), vehicle: distilled water + Tween-80) 92 % of control; (endpoint: mean survival time, dose: 500.0 mg/kg/injection, schedule: Q01DX001 (ip), vehicle: distilled water + Tween-80) 103 % of control.
For the compound `Nc1ccn(C2OC(CO)C(O)C2Br)c(=O)n1` (stereo not given), the T/C runs as follows: (endpoint: median survival time, dose: 12.5 mg/kg/injection, schedule: Q01DX005 (ip), vehicle: saline) 108 % of control; (endpoint: median survival time, dose: 25.0 mg/kg/injection, schedule: Q01DX005 (ip), vehicle: saline) 107 % of control; (endpoint: median survival time, dose: 50.0 mg/kg/injection, schedule: Q01DX005 (ip), vehicle: Klucel (hydroxypropylcellulose) (HPC)) 118 % of control; (endpoint: median survival time, dose: 50.0 mg/kg/injection, schedule: Q01DX005 (ip), vehicle: saline) 119 % of control; (endpoint: median survival time, dose: 200.0 mg/kg/injection, schedule: Q01DX005 (ip), vehicle: saline) 150 % of control.
With `O=C1NNC(=O)C2C3CCC(C3)C12` (stereo not given), the T/C is 95 % of control (endpoint: mean survival time, dose: 100.0 mg/kg/injection, schedule: Q04DX003 (ip), vehicle: saline sonified) and 89 % of control (endpoint: mean survival time, dose: 200.0 mg/kg/injection, schedule: Q04DX003 (ip), vehicle: saline sonified).
